Data as given in patent US20240024405A1, “COMPOSITIONS OF CASPASE INHIBITORS AND METHODS OF USE THEREOF” (priority 2022, published 2024).
Where a SMILES comes first, the peptide text is derived from it. The star is where a group is joined. Cbz = O=C(OCc1ccccc1)*; CH2F = FC*

What was measured:
[1] = test system: HCoV-229E; format: cell-based
[2] = test system: HCoV-OC43
[3] = test system: MERS-CoV
[4] = test system: SARS-CoV-2
[5] = test system: SARS-CoV-1; format: cell-based
[6] = test system: caspase-6; format: cell-based
[7] = test system: MERS-CoV; format: cell-based
[8] = test system: MERS-CoV MA; set-up: species or system mice; details: in vivo
[9] = test system: rMERS-CoV/TKKD; format: cell-based, MERS-CoV
[10] = test system: MERS-CoV; format: cell-based, human
[11] = test system: MERS-CoV; format: cell-based; remark: listed apart in the source
[12] = test system: MERS-CoV; format: cell-based; remark: listed apart in the source
[13] = test system: MERS-CoV; format: cell-based; remark: listed apart in the source
[14] = test system: enterovirus A71; format: cell-based
[15] = test system: influenza virus (H1N1); format: cell-based
[16] = target: T1, caspase-6 (Homo sapiens, UniProt P55212); format: cell-based
T1 construct: expressed in transfected cells
T1 sequence (P55212 24-179 limits assumed): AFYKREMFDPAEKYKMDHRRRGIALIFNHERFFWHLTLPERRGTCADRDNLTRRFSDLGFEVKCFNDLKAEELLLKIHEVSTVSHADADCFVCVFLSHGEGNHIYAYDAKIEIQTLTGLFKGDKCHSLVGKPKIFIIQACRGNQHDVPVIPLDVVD
T1 sequence (P55212 194-293 limits assumed): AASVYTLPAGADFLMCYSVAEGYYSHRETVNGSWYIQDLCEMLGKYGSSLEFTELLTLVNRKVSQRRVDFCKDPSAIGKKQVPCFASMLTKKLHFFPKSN

[17] = test system: SARS-CoV-2; set-up: species or system Golden Syrian hamsters; details: in vivo
[18] = test system: rMERS-CoV/TKKA; format: cell-based, MERS-CoV
[19] = test system: MERS-CoV; format: cell-based, human; remark: listed apart in the source

## z-VAD-fmk
[1]
  HCoV-229E replication with pan-caspase inhibitor: similarly limited
[2]
  HCoV-OC43 replication with pan-caspase inhibitor: similarly limited
[3]
  MERS-CoV replication with pan-caspase inhibitor: significantly limited
[4]
  SARS-CoV-2 replication with pan-caspase inhibitor: similarly limited
[5]
  SARS-CoV-1 replication with pan-caspase inhibitor: similarly limited

## CN[C@@H]1C[C@H]2O[C@@](C)([C@@H]1OC)n1c3ccccc3c3c4c(c5c6ccccc6n2c5c31)C(=O)NC4 [Staurosporine]
[6]
  Caspase-6 activity in cell lysate: activated

## CC[C@H](C)[C@H](NC(=O)[C@H](CCC(=O)OC)NC(=O)[C@@H](NC(=O)OCc1ccccc1)C(C)C)C(=O)N[C@@H](CC(=O)OC)C(=O)CF [z-VEID-fmk, Z-Val-Glu(OMe)-Ile-Asp(OMe)-CH2F] (Cbz-VE(OMe)ID(OMe)-CH2F)
[7]
  Virus replication when inhibitor added during MERS-CoV inoculation: did not reduce
[8]
  Expression of pro-inflammatory cytokines and chemokines in mouse lungs: significantly attenuated
[8]; mouse
  Body weight loss of infected mice: largely inhibited
  MERS-CoV MA replication in the lungs: effectively reduced
  Survival of infected hDPP4 KI mice: 80%
[9]
  Replication of rMERS-CoV/TKKD: remained effective
[10]
  MERS-CoV nucleocapsid (N) protein and N gene expression in human lung tissues: significantly reduced
[1]
  HCoV-229E replication (N gene copy): attenuated
[2]
  HCoV-OC43 replication (N gene copy): attenuated
  IC50: 30.6 µM
[11]
  Viral inhibitory effect in stable caspase-6 knockdown cells: largely diminished
[12]
  Antiviral effect of z-VEID-fmk when the IFN pathway is non-functional: diminished
[13]
  MERS-CoV replication among specific caspase inhibitors (MERS-CoV N-positive cells): most dramatically limited
[3]
  IC50: 21.1 µM
  Inhibitory effect on MERS-CoV replication across cell types: conserved across different cell types exceptVeroE6 cells
  MERS-CoV replication (N gene copy): attenuated
[4]
  SARS-CoV-2 replication (RdRp gene copy): attenuated
[14]
  Enterovirus A71 replication (VP1 gene copy): did not impact
[15]
  H1N1 replication (M gene copy): did not impact
[5]
  SARS-CoV-1 replication (N gene copy): attenuated
[16]
  Cleavage of MERS-CoV N by co-expressed caspase-6: completely abolished
  N cleavage in MERS-CoV-infected cells: similarly inhibited
[17]; hamster
  Alveolar space immune cells infiltration: dramatically inhibited
  Body weight of infected hamsters: significant improvements
  Lung damage by histopathological scores: significantly ameliorated
  Tissue damage: bronchiolitis, alveolitis and vasculitis: significantly ameliorated
[17]
  Expression of virus-induced pro-inflammatory cytokines and chemokines in hamster lungs: ameliorated
  Hamster lung pathology (H&E): markedly improved
  Number of viral N-protein positive cells in hamster lungs: reduced
  SARS-CoV-2 replication in the hamster lungs: significantly reduced
[18]
  Replication of rMERS-CoV/TKKA: not limited
[19]
  MERS-CoV replication in human intestinal organoids: inhibited
[19]; 100 µM
  Inhibition of production of infectious virus particles in human intestinal organoids: approximately 80%
